Source: patent US4897344A, “Method of hardening gelatin” (Fuji Photo Film Co., Ltd., priority 1987, dated 1990)
In brackets after ≈: the same amount, converted by molar mass.

Experiment: Solubility in water at 25 °C (weight recovered undissolved and weight dissolved after stirring 5 hours)
Type: physicochemical
Conditions: for Weight Recovered: undissolved portion, 10 grams in 100 ml of water, 5 hours stirring; for solubility thermodynamic at 5 h: water, head prints 10 ml, text prints 100 ml
Method: Ten grams of Compound 1 of this invention and 10 grams of Comparative Compound (I) disclosed (as illustrative compound 3) in Japanese Patent Application No. 41221/78 for comparative purposes were each separately dissolved in 100 ml of water and stirred for 5 hours while maintaining a temperature of 25° C. The undissolved portion was recovered by filtration and the weight of the recovered material was determined after drying. Comparative Compound (I)
The weights of the compounds recovered and the amounts dissolved in 100 ml of water at 25° C. calculated on the basis of the weights recovered are shown in Table 1.

Structure (SMILES): C=CS(=O)(=O)CC(=O)NCCNC(=O)CS(=O)(=O)C=C [Comparative Compound (I), reference compound]
- Weight Recovered: 8.0 grams
- solubility thermodynamic at 5 h: 20 mg/mL (≈ 61.7 mM)

Structure (SMILES): C=CS(=O)(=O)C(CCc1ccc(S(=O)(=O)O)cc1)S(=O)(=O)C=C [Compound 1]
- solubility in water relative to Comparative Compound (I) (in words): much better solubility in water
- Weight Recovered: 0 grams
- solubility thermodynamic at 5 h: > 100 mg/mL
